Test results: ChEMBL document CHEMBL1201862, “PubChem BioAssay data set” (2004)
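Five concentrations, 48 hours, 96-well plates. Abbreviation: GI50, concentration required for 50% inhibition of growth.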 Activity calls are given as the source filed them. No stated cut-off is given here; in the data, active = GI50 up to about 1.1 µM and inactive = higher.

Tests used:
Assay in all cases: inhibition of tumour cell growth, NCI panel, 48 h
CCRF-CEM = tested on: CCRF-CEM
MDA-MB-231 = tested on: MDA-MB-231
SNB-19 = tested on: SNB-19
RXF 393 = tested on: RXF 393
A549 = tested on: A549
SF-539 = tested on: SF-539
SN12C = tested on: SN12C
SF-268 = tested on: SF-268
Hs-578T = tested on: Hs-578T
K562 = tested on: K562
RPMI-8226 = tested on: RPMI-8226
HOP-62 = tested on: HOP-62
HT-29 = tested on: HT-29
ACHN = tested on: ACHN
U-251 = tested on: U-251
MDA-MB-435 = tested on: MDA-MB-435
MCF7 = tested on: MCF7
NCI/ADR-RES = tested on: NCI/ADR-RES
HCT-15 = tested on: HCT-15
SR = tested on: SR

`C/C=C/C(C#N)(/C=C/c1ccccc1)OP1(=O)OC(c2ccccc2)C(C)N1C` (centres undefined) was tested, and the GI50 (CCRF-CEM) was 11 µM (inactive), the GI50 (MDA-MB-231) was 17.5 µM (inactive) and the GI50 (SNB-19) was 20.7 µM (inactive). The GI50 (RXF 393) was 20.7 µM (inactive), the GI50 (A549) was 20 µM (inactive) and the GI50 (SF-539) was 17.8 µM (inactive). The GI50 (SN12C) was 19.2 µM (inactive), the GI50 (SF-268) was 19.6 µM (inactive) and the GI50 (Hs-578T) was 22.4 µM (inactive). For the same compound, the GI50 (K562) was 16.4 µM (inactive), the GI50 (RPMI-8226) was 15.2 µM (inactive) and the GI50 (HOP-62) was 19.4 µM (inactive). For the same compound, the GI50 (HT-29) was 19.7 µM (inactive), the GI50 (ACHN) was 26.9 µM (inactive) and the GI50 (U-251) was 17.2 µM (inactive). For the same compound, the GI50 (MDA-MB-435) was 18.2 µM (inactive) and the GI50 (MCF7) was 22.8 µM (inactive).
With `CC(C)SC(NC(=O)C1C(C)(C)CCC1(C)C)C(=O)O` (centres undefined) the GI50 (CCRF-CEM) was > 100 µM (inactive), the GI50 (MDA-MB-231) was > 100 µM (inactive) and the GI50 (SNB-19) was > 100 µM (inactive). The GI50 (NCI/ADR-RES) was > 100 µM (inactive), the GI50 (A549) was > 100 µM (inactive) and the GI50 (SF-539) was > 100 µM (inactive). For the same compound, the GI50 (SN12C) was > 100 µM (inactive), the GI50 (SF-268) was > 100 µM (inactive) and the GI50 (Hs-578T) was > 100 µM (inactive). The GI50 (K562) was > 100 µM (inactive), the GI50 (RPMI-8226) was > 100 µM (inactive) and the GI50 (HCT-15) was over 100 µM. For the same compound, the GI50 (HOP-62) was > 100 µM (inactive), the GI50 (ACHN) was > 100 µM (inactive) and the GI50 (U-251) was > 100 µM (inactive). The GI50 (MDA-MB-435) was > 100 µM (inactive) and the GI50 (MCF7) was > 100 µM (inactive).
For `Nc1ncnc2c(C3OC(CO)C(O)C3O)c[nH]c12` (centres undefined), the GI50 (CCRF-CEM) was 0.00224 µM (active), the GI50 (MDA-MB-231) was 0.0078 µM (active) and the GI50 (SNB-19) was 0.0131 µM (active). For the same compound, the GI50 (RXF 393) was 0.00301 µM (active), the GI50 (A549) was 0.00399 µM (active) and the GI50 (SF-539) was 0.00813 µM (active). The GI50 (SN12C) was 0.00377 µM (active), the GI50 (SF-268) was 0.01 µM (active) and the GI50 (Hs-578T) was 0.00129 µM (active). For the same compound, the GI50 (K562) was 0.00238 µM (active), the GI50 (RPMI-8226) was 0.00256 µM (active) and the GI50 (HCT-15) was 0.00372 µM. The GI50 (SR) was 0.00298 µM (active), the GI50 (HT-29) was 0.0056 µM (active) and the GI50 (ACHN) was 0.00125 µM (active). For the same compound, the GI50 (U-251) was 0.00847 µM (active), the GI50 (MDA-MB-435) was 0.0314 µM (active) and the GI50 (MCF7) was 0.0152 µM (active).
For `COC(=O)/C=C1\C(CO[Si](C)(C)C(C)(C)C)OC(n2cc(C)c(=O)n(C)c2=O)C1O[Si](C)(C)C(C)(C)C` (centres undefined), the GI50 (CCRF-CEM) was > 100 µM (inactive), the GI50 (MDA-MB-231) was > 100 µM (inactive) and the GI50 (SNB-19) was > 100 µM (inactive). The GI50 (NCI/ADR-RES) was > 100 µM (inactive), the GI50 (A549) was > 100 µM (inactive) and the GI50 (SN12C) was > 100 µM (inactive). For the same compound, the GI50 (SF-268) was > 100 µM (inactive), the GI50 (Hs-578T) was > 100 µM (inactive) and the GI50 (K562) was > 100 µM (inactive). For the same compound, the GI50 (RPMI-8226) was 78 µM (inactive), the GI50 (HCT-15) was over 100 µM and the GI50 (HOP-62) was > 100 µM (inactive). The GI50 (HT-29) was > 100 µM (inactive), the GI50 (ACHN) was > 100 µM (inactive) and the GI50 (U-251) was 81.7 µM (inactive). For the same compound, the GI50 (MDA-MB-435) was 62.4 µM (inactive) and the GI50 (MCF7) was 27 µM (inactive).
For `O=S(=O)(N/C(=N\O)Nc1ccc(Cl)cc1)c1cc(C(F)(F)F)cc(C(F)(F)F)c1`, the GI50 (CCRF-CEM) was 40.7 µM (inactive), the GI50 (MDA-MB-231) was 18.4 µM (inactive) and the GI50 (SNB-19) was 17.1 µM (inactive). For the same compound, the GI50 (NCI/ADR-RES) was 24.9 µM (inactive), the GI50 (RXF 393) was 19 µM (inactive) and the GI50 (A549) was 18.1 µM (inactive). The GI50 (SF-539) was 22.3 µM (inactive), the GI50 (SN12C) was 17.5 µM (inactive) and the GI50 (SF-268) was 21.6 µM (inactive). The GI50 (Hs-578T) was 23 µM (inactive), the GI50 (K562) was 29.9 µM (inactive) and the GI50 (HCT-15) was 19.9 µM. The GI50 (HOP-62) was 18.7 µM (inactive), the GI50 (HT-29) was 19 µM (inactive) and the GI50 (ACHN) was 17.3 µM (inactive). The GI50 (U-251) was 16.6 µM (inactive) and the GI50 (MDA-MB-435) was 20.3 µM (inactive).
`Cc1ccc(C(=O)Nc2ccc(CP(=O)(O)O)cc2CP(=O)(O)O)cc1NC(=O)c1cccc(N)c1` was tested, and the GI50 (CCRF-CEM) was > 100 µM (inactive), the GI50 (MDA-MB-231) was > 100 µM (inactive) and the GI50 (NCI/ADR-RES) was > 100 µM (inactive). For the same compound, the GI50 (RXF 393) was > 100 µM (inactive), the GI50 (A549) was > 100 µM (inactive) and the GI50 (SF-539) was > 100 µM (inactive). For the same compound, the GI50 (SN12C) was > 100 µM (inactive), the GI50 (SF-268) was > 100 µM (inactive) and the GI50 (Hs-578T) was > 100 µM (inactive). The GI50 (K562) was > 100 µM (inactive), the GI50 (RPMI-8226) was > 100 µM (inactive) and the GI50 (HCT-15) was over 100 µM. The GI50 (HOP-62) was > 100 µM (inactive), the GI50 (HT-29) was > 100 µM (inactive) and the GI50 (ACHN) was > 100 µM (inactive). For the same compound, the GI50 (U-251) was > 100 µM (inactive), the GI50 (MDA-MB-435) was > 100 µM (inactive) and the GI50 (MCF7) was > 100 µM (inactive).
